Common to all, as to assay type: cell-based, human
Series [1] has as its system SKOV-3 cells. Put plainly: SA-β-Gal activity (senescence), SKOV-3. The settings on record: 24 h, 10, 50, 100 μM tested. The protocol:
The activity of SA-β-Gal in the cell extracts was quantified by measuring the rate of conversion of 4-methylumbelliferyl-β-D-galactopyranoside to 4-methylumbelliferone, as described in [19]. In order to visualize expression of the enzyme in the cancer cell cytoplasm, cytochemical staining for SA-β-Gal was performed according to Dimri et al..

For series [2], the system named is OVCAR-3 cells. Description: Oxidative DNA damage (8-OH-dG immunoassay), OVCAR-3. The settings on record: 24 h, 10, 50, 100 μM tested. Here is the method:
(§1) Oxidative DNA damage was assessed by measuring the 8-OH-dG concentration with a competitive immunoassay (Cell Biolabs Inc.), as per manufacturer's instructions. The efficiency of 8-OH-dG repair was estimated after cell recovery for 24 h in standard growth medium. In order to examine the activity of DNA glycosylase I, reverse transcription PCR was performed. RNA extraction was carried out using the RNA Bee (Tel-Test, Friendswood, Texas, USA) and purified according to the manufacturer's protocol. One microgram of RNA was reverse transcribed into cDNA with random hexamer primers, and cDNA was subjected to PCR. The profile of the replication cycles was denaturation at 94°C for 50 s, annealing at 58°C for 50 s, and polymerization at 72°C for 1 min. In each reaction, the expression of glyceraldehyde-3-phosphate dehydrogenase (GAPDH) served as the internal control. The primers used for PCR were as follows: hOGG1 forward, 5′-[…]-3′; hOGG1 reverse, 5′-TAGCCCGCCCTGTTCTTC-3′ designed to amplify a 551-bp region; GAPDH forward, 5′-CCATGGAGAAGGCTGGGG-3′; and GAPDH reverse 5′-[…]-3′ designed to amplify a 194-bp region (total number of cycles: 28). The PCR products were separated on 3% agarose gels stained with ethidium bromide and then visualized.

In another series the test system is p38 MAPK. Put plainly: p38 MAPK activation (FACE ELISA), A2780. The settings on record: 24 h, 10, 50, 100 μM tested. Here is the method: Activation of p38 MAPK was examined using the Fast Activated Cell-Based ELISA (FACE) p38 kit (Active Motif) according to the manufacturer's instructions. In brief, cells were fixed with 4% formaldehyde and incubated with a primary antibody that recognizes either phosphorylated p38 or total p38 overnight at 4°C. Then the cells were washed and incubated with a secondary HRP-conjugated antibody for 1 h at room temperature. The color reaction that developed was read using a spectrofluorometer at 450 nm wavelength.
The results were expressed as a ratio of phosphorylated to total p38 activity.
In general terms: ELISA stands for enzyme-linked immunosorbent assay.

The subject of series [3] is HPMCs. Put plainly: MTT viability assay, HPMCs. The settings on record: 24 h; for IC50: Homo sapiens, CalcuSyn; for concentration up to which viability was maintained: cytotoxicity tests (MTT and LDH release). The protocol:
Cell viability was assessed with the MTT test and with lactate dehydrogenase (LDH) release assay. As per the MTT method, normal and cancer cells were seeded into 96-well plates at high density and allowed to attach overnight. Then they were incubated in a medium containing 1.25 mg/mL of the MTT salt [3-(4,5-dimethylthiazol-2-yl)-2,5-diphenyltetrazolium bromide] for 24 h at 37°C. The generated formazan was solubilized with 20% sodium dodecyl sulphate and 50% N,N-dimethylformamide. Absorbance of the converted dye was recorded at 595 nm with a reference wavelength of 690 nm.
In order to examine the effect of 3,3′,4,4′-THS on the viability of ovarian cancer cells and to compare its activity with RVT, subconfluent cultures of A2780, OVCAR-3, and SKOV-3 cells were subjected to a wide range of stilbene concentrations (0–500 μM) for 24 h; then MTT and LDH release assays were performed.

The test system of series [4] is A2780 cells. Put plainly: Oxidative DNA damage (8-OH-dG immunoassay), A2780. The settings on record: 24 h, 10, 50, 100 μM tested. The protocol:
as §1

The subject of series [5] is HPMCs. Description: ROS production (H2DCFDA), HPMCs. The settings on record: 24 h, percentage of control cells. The protocol: (§2) ROS production was assessed in cells probed with a fluorescent dye, 2′,7′-dichlorodihydrofluorescein diacetate (H2DCFDA; 5 μM) (Molecular Probes, Eugene, USA) for 45 min at 37°C. Fluorescence intensity in cell lysates was monitored in a Victor2 spectrofluorometer with excitation at 485 nm and emission at 535 nm.

The test system of series [6] is superoxide dismutase (SOD). Put plainly: SOD activity in cell lysates, SKOV-3. The settings on record: 24 h, 10, 50, 100 μM tested. Here is the method:
(§3) Total activity of superoxide dismutase (SOD) was measured in cell lysates with a commercially available kit (R&D Systems Europe, Abingdon, UK), while the activity of catalase (CAT) was estimated by using the OxiSelect Catalase Activity Assay Kit (Cell Biolabs Inc., San Diego, CA, USA). Both assays were performed according to the manufacturer's instructions.

In series [7] the test system is HPMCs. Put plainly: Oxidative DNA damage (8-OH-dG immunoassay), HPMCs. The settings on record: 24 h, percentage of control cells. The protocol:
as §1

Series [8] relates to A2780 cells. Put plainly: Apoptosis (Hoechst 33258), A2780. The settings on record: 24 h, 10, 50, 100 μM tested. Here is the method:
(§4) Identification of apoptosis was based on the presence of DNA condensation in cells stained with a fluorescent dye, Hoechst 33258 (Molecular Probes, Eugene, OR). Cells were grown on Lab-Tek Chamber Slides (Nunc, Roskilde, Denmark), fixed with 4% formaldehyde for 10 min and washed twice with PBS. Then the cells were incubated with Hoechst 33258 (0.1 μg/mL) for 5 min in the dark. After washing with PBS, stained nuclei were observed and counted under a Zeiss Axio Observer D1 fluorescence microscope (Carl Zeiss, Jena, Germany). The activity of caspases 3, 8, and 9 was quantified in the cell lysates using specific colorimetric kits (Abcam, Cambridge, UK) according to the manufacturer's instructions.

Series [9] deals with HPMCs. Description: LDH release assay, HPMCs. The settings on record: Homo sapiens, 24 h, CalcuSyn.
Series [10] deals with HPMCs. Put plainly: Apoptosis (Hoechst 33258), HPMCs. The settings on record: 24 h, percentage of control cells. Here is the method:
as §4

Series [11] deals with SKOV-3 cells. Description: ROS production (H2DCFDA), SKOV-3. The settings on record: 24 h, 10, 50, 100 μM tested. Here is the method:
as §2

The test system of series [12] is A2780 cells. Put plainly: Cell proliferation (CFDA SE), A2780. The settings on record: low-density cultures, 24 h, 10, 50, 100 μM tested. The protocol: Cell proliferative potential was determined using Cell Proliferation Kit I (PromoKine, Heidelberg, Germany) according to the manufacturer's instructions. In brief, cells were probed for 15 min with 5-(and 6)-carboxyfluorescein diacetate, a succinimidyl ester (CFDA SE; 2 μM) which diffuses into cells, covalently binds to proteins, and becomes fluorescent upon its hydrolysis by intracellular esterases. The fluorescence emitted by the cells (the dye is inherited by the daughter cells through successive divisions) was recorded using a Victor2 spectrofluorometer (Perkin-Elmer, Turku, Finland) with excitation at 435 nm and emission at 535 nm.

Another series deals with catalase (CAT). Description: CAT activity, HPMCs. The settings on record: 24 h, percentage of control cells. The protocol: as §3
Series [13] has as its system OVCAR-3 cells. Put plainly: ROS production (H2DCFDA), OVCAR-3. The settings on record: 24 h, 10, 50, 100 μM tested. Here is the method: as §2

Molecules are shown by their SMILES.

For orientation: IC50 means the concentration at which inhibition is half-maximal. On to `Oc1ccc(/C=C/c2ccc(O)c(O)c2)cc1O` [3,3′,4,4′-THS, 3,3′,4,4′-tetrahydroxy-trans-stilbene], for which, in the series on SKOV-3 cells [1], the “SA-β-Gal activity (senescence), effect in words” value is listed as “significantly greater than those of RVT at each concentration”. For the same compound, the “concentration of 8-OH-dG (oxidative DNA damage), effect in words” value in the series with OVCAR-3 cells [2] was “increasing the concentration of 8-OH-dG in the OVCAR-3 and SKOV-3 cells starting from a dose of 10 μM”; in the series with A2780 cells [4], “only concentrations of 50 and 100 μM were effective”. Also, the “p38 MAPK activity (phosphorylated/total), effect in words” value with p38 MAPK is “elicited its stimulatory activity at 50 and 100 μM”. For the same compound, the results for the IC50 in the series with HPMCs [3] and with HPMCs [9] were 496 µM and 498 µM, respectively. Moreover, the “concentration up to which viability was maintained” value in the series with HPMCs [3] is “up to 300 μM”. Besides, the values for the ROS in the series on HPMCs [5] (10 μM), in the series with HPMCs [5] (50 μM) and in the series on HPMCs [5] (100 μM) were 104 ± 4%, 102 ± 3% and 82 ± 1^∗# %, respectively. Further, the “SOD activity, effect in words” value in series [6] is “downregulated it at 50 and 100 μM”. For the same compound, the values for the 8-OH-dG in the series with HPMCs [7] (10 μM), in the series with HPMCs [7] (50 μM) and in the series on HPMCs [7] (100 μM) were 91 ± 2^∗# %, 88 ± 3^∗# % and 76 ± 3^∗# %, respectively. For the same compound, the “incidence of apoptosis (rise in percentage of death cells), effect in words” value in the series on A2780 cells [8] is “evident starting from the lowest concentration of 10 μM”. The Apoptosis with HPMCs [10] (10 μM) is on record as 98 ± 2%; in the series with HPMCs [10] (50 μM) it was 102 ± 2%; with HPMCs [10] (100 μM), 100 ± 4%. The “generation of ROS, effect in words” value in the series with SKOV-3 cells [11] and with OVCAR-3 cells [13] was “remarkably stronger” each time. Further, in the series with A2780 cells [12], the “proliferation, effect in words” value was “evident at as low a concentration as 10 μM”. Further, the CAT with catalase (CAT) (10 μM) is given as 112 ± 2^∗# %; in the series on catalase (CAT) (50 μM), 123 ± 4^∗# %; with catalase (CAT) (100 μM), 154 ± 1^∗# %.

As for `Oc1ccc(/C=C/c2cc(O)cc(O)c2)cc1` [RVT, 3,4′,5-trihydroxy-trans-stilbene, reference compound], the “SA-β-Gal activity (senescence), effect in words” value in the series with SKOV-3 cells [1] is reported as “cellular senescence was elicited”. Further, the “concentration of 8-OH-dG (oxidative DNA damage), effect in words” value in the series with OVCAR-3 cells [2] was “evident only at 100 μM”; with A2780 cells [4], “induced DNA injury in A2780 and SKOV-3 at 50 and 100 μM”. Further, the “p38 MAPK activity (phosphorylated/total), effect in words” value with p38 MAPK is on record as “increased the activity of p38 MAPK at 100 μM”. Moreover, the concentration for half-maximal inhibition (IC50) was 465 µM with HPMCs [3] and 495 µM in the series with HPMCs [9]. The “concentration up to which viability was maintained” value in the series with HPMCs [3] is reported as “up to 300 μM”. Moreover, the figures for the ROS in the series on HPMCs [5] (10 μM), in the series on HPMCs [5] (50 μM) and with HPMCs [5] (100 μM) were 108 ± 4^∗ %, 106 ± 11% and 105 ± 7%, respectively. Moreover, the “SOD activity, effect in words” value in series [6] is recorded as “failed to affect SOD activity”. Further, the 8-OH-dG in the series with HPMCs [7] (10 μM) was 103 ± 3%; in the series with HPMCs [7] (50 μM), 103 ± 2%; in the series with HPMCs [7] (100 μM), 102 ± 5%. Also, the “incidence of apoptosis (rise in percentage of death cells), effect in words” value in the series on A2780 cells [8] was “exhibiting its impact at concentrations of 50 and 100 μM for the A2780 and SKOV-3 cells”. Further, the Apoptosis in the series with HPMCs [10] (10 μM) amounted to 101 ± 1%; with HPMCs [10] (50 μM) it was 101 ± 1%; with HPMCs [10] (100 μM), 98 ± 3%. The “generation of ROS, effect in words” value with SKOV-3 cells [11] and with OVCAR-3 cells [13] was “stimulated the release of ROS” each time. The “proliferation, effect in words” value in the series on A2780 cells [12] is reported as “effectively reduced the expandability”. In addition, the CAT in the series with catalase (CAT) (10 μM) is recorded as 101 ± 1%; in the series on catalase (CAT) (50 μM), 103 ± 4%; in the series on catalase (CAT) (100 μM), 118 ± 3^∗ %.

(Values after paper PMC4502315, “High Potency of a Novel Resveratrol Derivative, 3,3′,4,4′-Tetrahydroxy-trans-stilbene, against Ovarian Cancer Is Associated with an Oxidative Stress-Mediated Imbalance between DNA Damage Accumulation and Repair” (Oxidative Medicine and Cellular Longevity, 2015).)
